Common to all, as to conditions: displacement of [3H]-NMS, membranes from transfected CHO cells; separate determinations in one cell
The target of assay [1] is T1, human muscarinic receptor subtype M5 (Hm5) (Homo sapiens, UniProt P08912).
T1 sequence (P08912 1-532): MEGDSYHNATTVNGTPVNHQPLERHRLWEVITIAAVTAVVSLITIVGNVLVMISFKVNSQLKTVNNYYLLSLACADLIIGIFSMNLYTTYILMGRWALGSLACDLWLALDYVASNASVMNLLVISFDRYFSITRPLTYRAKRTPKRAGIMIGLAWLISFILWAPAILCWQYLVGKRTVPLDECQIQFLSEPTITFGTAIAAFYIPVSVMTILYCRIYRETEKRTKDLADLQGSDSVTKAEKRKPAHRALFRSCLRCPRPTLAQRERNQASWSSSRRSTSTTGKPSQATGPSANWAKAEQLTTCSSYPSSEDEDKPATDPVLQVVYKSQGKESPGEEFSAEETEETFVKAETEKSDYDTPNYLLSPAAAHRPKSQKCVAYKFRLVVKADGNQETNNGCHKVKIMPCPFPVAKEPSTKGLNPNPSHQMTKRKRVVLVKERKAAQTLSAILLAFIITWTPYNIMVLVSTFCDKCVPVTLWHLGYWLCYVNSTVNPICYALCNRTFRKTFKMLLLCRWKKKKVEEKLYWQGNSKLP
Description: [3H]-NMS receptor binding in CHO cell membranes, Hm5. The procedure:
(§1) The compounds of Formula I have shown potent binding affinity for muscarinic receptors and are thus useful as muscarinicing antagonists. […] The compounds are evaluated in standard assays used to measure muscarinic receptor binding. Specifically, the compounds are evaluated for their binding affinity toward five human muscarinic receptor subtypes (M1-M5) by the method of Dorje et al., J. Pharm. Exp. Ther., 1991;256:727-733, incorporated herein by reference. The binding is determined by measuring the displacement of [^3H]-NMS binding using membranes from transfected Chinese hamster ovary (CHO) cells. All compounds are tested two to four times with duplicate tubes (SEM is ≦10% in all cases).

For assay [2], the target named is human muscarinic receptor subtype M3 (Hm3) (Homo sapiens, UniProt P20309). Kind of assay: [3H]-NMS receptor binding in CHO cell membranes, Hm3. The procedure: as §1
Chain of human muscarinic receptor subtype M3 (Hm3) (P20309 whole entry): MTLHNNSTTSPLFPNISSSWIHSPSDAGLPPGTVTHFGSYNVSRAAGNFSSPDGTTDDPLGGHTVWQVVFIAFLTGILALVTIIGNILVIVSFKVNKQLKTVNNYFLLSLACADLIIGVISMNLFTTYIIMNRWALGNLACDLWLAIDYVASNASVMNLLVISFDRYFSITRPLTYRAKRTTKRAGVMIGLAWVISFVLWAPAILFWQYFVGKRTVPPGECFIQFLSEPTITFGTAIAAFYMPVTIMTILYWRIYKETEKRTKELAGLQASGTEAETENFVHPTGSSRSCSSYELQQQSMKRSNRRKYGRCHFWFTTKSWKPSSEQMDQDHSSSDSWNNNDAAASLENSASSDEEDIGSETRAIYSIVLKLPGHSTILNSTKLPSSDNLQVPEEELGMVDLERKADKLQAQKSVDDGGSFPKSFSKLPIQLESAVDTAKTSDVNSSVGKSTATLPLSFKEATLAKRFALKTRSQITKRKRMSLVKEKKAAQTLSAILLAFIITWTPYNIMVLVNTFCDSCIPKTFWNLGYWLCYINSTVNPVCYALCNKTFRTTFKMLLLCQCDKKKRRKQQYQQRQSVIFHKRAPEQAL
In assay [3] the target is T2, human muscarinic receptor subtype M1 (Hm1) (Homo sapiens, UniProt P11229).
T2 sequence (P11229 1-460): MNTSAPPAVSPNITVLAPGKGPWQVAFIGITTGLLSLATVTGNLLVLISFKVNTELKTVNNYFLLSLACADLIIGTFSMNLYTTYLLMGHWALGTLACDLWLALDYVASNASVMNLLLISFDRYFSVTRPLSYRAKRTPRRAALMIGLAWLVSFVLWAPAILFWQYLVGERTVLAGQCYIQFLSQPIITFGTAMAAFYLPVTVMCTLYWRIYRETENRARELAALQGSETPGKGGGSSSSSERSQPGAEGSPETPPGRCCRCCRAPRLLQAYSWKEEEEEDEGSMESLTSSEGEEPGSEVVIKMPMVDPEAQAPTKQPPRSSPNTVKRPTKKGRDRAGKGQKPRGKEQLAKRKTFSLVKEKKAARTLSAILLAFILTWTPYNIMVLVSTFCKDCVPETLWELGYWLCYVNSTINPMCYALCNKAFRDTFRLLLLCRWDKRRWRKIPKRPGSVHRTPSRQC
Description: [3H]-NMS receptor binding in CHO cell membranes, Hm1. As to the method: as §1

The target in assay [4] is T3, human muscarinic receptor subtype M2 (Hm2) (Homo sapiens, UniProt P08172).
T3 sequence (P08172 1-466): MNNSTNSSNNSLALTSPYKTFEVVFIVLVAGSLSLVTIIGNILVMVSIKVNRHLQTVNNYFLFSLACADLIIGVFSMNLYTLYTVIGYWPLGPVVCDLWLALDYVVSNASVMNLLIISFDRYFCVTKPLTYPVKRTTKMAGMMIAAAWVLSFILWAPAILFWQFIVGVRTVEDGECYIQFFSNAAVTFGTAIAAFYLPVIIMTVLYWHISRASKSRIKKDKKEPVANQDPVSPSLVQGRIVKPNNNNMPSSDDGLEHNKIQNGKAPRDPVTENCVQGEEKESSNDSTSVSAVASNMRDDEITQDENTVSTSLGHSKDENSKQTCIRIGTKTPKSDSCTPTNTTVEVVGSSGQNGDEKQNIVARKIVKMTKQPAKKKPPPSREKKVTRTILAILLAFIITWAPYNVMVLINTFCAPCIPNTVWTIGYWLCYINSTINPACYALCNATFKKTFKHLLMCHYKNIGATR
Kind of assay: [3H]-NMS receptor binding in CHO cell membranes, Hm2. The procedure:
as §1

The target of assay [5] is T4, human muscarinic receptor subtype M4 (Hm4) (Homo sapiens, UniProt P08173).
T4 sequence (P08173 1-479): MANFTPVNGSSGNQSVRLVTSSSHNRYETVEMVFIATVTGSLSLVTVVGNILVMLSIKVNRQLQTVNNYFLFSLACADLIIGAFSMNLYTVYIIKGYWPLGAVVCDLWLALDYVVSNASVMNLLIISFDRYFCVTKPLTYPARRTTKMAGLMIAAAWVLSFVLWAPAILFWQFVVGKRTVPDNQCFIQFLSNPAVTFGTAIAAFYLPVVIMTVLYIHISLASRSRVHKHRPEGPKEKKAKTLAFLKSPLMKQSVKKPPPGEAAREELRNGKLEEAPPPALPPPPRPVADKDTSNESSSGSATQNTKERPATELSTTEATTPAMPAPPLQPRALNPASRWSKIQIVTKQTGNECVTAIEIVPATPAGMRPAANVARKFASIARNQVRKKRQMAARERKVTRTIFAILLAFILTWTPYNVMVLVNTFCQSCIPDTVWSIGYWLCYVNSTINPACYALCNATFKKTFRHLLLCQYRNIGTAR
Description: [3H]-NMS receptor binding in CHO cell membranes, Hm4. The procedure:
as §1

“And” between values parts separate entries of the source, which are not always exact repeats. Identical values can stand only once.

`CCOC(=O)c1c(C)[nH]c2cc(Br)c3c(c12)CN1CCc2cc(OC)ccc2C1C3` (stereo not shown) [Compound 1, 5-Bromo-9-methoxy-2-methyl-6,11,12,13-tetrahydro-3H,6aH-3,12a-diaza-benzo[a]cyclopent[h]anthracene-1-carboxylic acid ethyl ester]: the IC50 was 5 µM and 4 µM in assay [1]; > 10 µM and 20 µM in assay [2]; 400 nM in assay [3]; 3 µM in assay [4]; 3 µM and 0.6 µM in assay [5].
Turning to `CCCc1[nH]c2cc(Br)c3c(c2c1C(=O)OCC)CN1CCc2cc(OC)ccc2C1C3` (stereo not shown) [Compound 2, 5-Bromo-9-methoxy-2-propyl-6,11,12,13-tetrahydro-3H6aH-3,12a-diaza-benzo[a]cyclopent[h]anthracene-1-carboxylic acid ethyl ester], the IC50 in assay [1] was 10 µM and 15 µM; in assay [2] it was over 10 µM; in assay [3], 500 nM and 400 nM; in assay [4], 0.8 µM and 4 µM; in assay [5] it was 2 µM and 3 µM.
Consider `CCOC(=O)c1c(C)[nH]c2ccc3c(c12)CN1CCc2cc(OC)ccc2C1C3` (stereo not shown) [Compound 3, 9-methoxy-2-methyl-6,11,12,13-tetrahydro-3H,6aH-3,12a-diaza-benzo[a]cyclopent[h]anthracene-1-carboxylic acid ethyl ester], for which the IC50 in assay [1] was 10 µM and 9 µM; in assay [2], > 10 µM and 5 µM; in assay [3] it was > 10000 nM and 25000 nM; in assay [4] it was 25 µM; in assay [5], > 10 µM and 20 µM.
Take `CCCc1[nH]c2ccc3c(c2c1C(=O)OCC)CN1CCc2cc(OC)ccc2C1C3` (stereo not shown) [Compound 4, 9-Methoxy-2-propyl-6,11,12,13-tetrahydro-3H6aH-3,12a-diaza-benzo[a]cyclopent[h]anthracene-1-carboxylic acid ethyl ester]: the IC50 is over 10 µM in assay [2]; over 10000 nM in assay [3]; 20 µM and 15 µM in assay [4]; over 10 µM in assay [5].

For orientation: IC50 means the concentration that gives 50% inhibition. A higher IC50 goes with weaker potency.

The values are drawn from patent US6500837B2, “Fused ring system containing indole as M4 selective aza-anthracene muscarinic receptor antagonists” (Warner-Lambert Company, priority 2000, dated 2002).
